Values after ≈ are worked out from the molar mass of the structure shown.
Columns and labels:
[1] = system: B. subtilis ATCC6633; experiment: MIC assay; assay type: cell-based, Bacillus subtilis; details: Bacillus subtilis, ATCC6633; two-fold serial dilutions in liquid media; n = 2–3
[2] = system: S. aureus ATCC6538P; experiment: MIC assay; assay type: cell-based, Staphylococcus aureus; details: Staphylococcus aureus, ATCC6538P; two-fold serial dilutions in liquid media; n = 2–3
[3] = system: E. coli ATCC8739; experiment: MIC assay; assay type: cell-based, Escherichia coli; details: two-fold serial dilutions in liquid media, n = 2–3; for MIC: Escherichia coli, ATCC8739
[4] = system: P. aeruginosa ATCC9027; experiment: MIC assay; assay type: cell-based, Pseudomonas aeruginosa; details: Pseudomonas aeruginosa, ATCC9027; two-fold serial dilutions in liquid media; n = 2–3
[5] = system: M. smegmatis ATCC700084; experiment: MIC assay (REMA); assay type: cell-based, Mycobacterium smegmatis; details: Mycolicibacterium smegmatis, ATCC700084, REMA microdilution, n = 2–3
[6] = system: C. albicans DSM10697; experiment: MIC assay; assay type: cell-based, Candida albicans; details: two-fold serial dilutions in liquid media, n = 2–3; for MIC: Candida albicans, DSM10697
[7] = Cytotoxic assay (resazurin); details: human, A498 kidney epithelial cells
[8] = Cytotoxic assay (resazurin); details: human, BEAS-2B normal lung epithelial cells
[9] = Cytotoxic assay (resazurin); details: human, Caco-2
[10] = Cytotoxic assay (resazurin); details: human, HaCaT normal epidermal keratinocytes
[11] = Cytotoxic assay (resazurin); details: human, HepG2 liver cells
[12] = Cytotoxic assay (resazurin); details: human, IMR-90 normal lung fibroblasts
[13] = Cytotoxic assay, summary over the six human cell types; details: human, 48 h exposure
[14] = system: human cells (A498, BEAS-2B, Caco-2, HaCaT, HepG2, IMR-90); experiment: as above; details: for Highest TI: highest CC50 on human cells divided by MIC on S. aureus; for Lowest TI: lowest CC50 on human cells divided by MIC on S. aureus
[15] = system: B. subtilis, S. aureus, E. coli, P. aeruginosa, M. smegmatis, C. albicans; experiment: First MIC screening, summary over the species of Table 2; assay type: cell-based; details: discussion of the first screening
[16] = Highest CC50, highest of the six human cell types
[17] = Lowest CC50, lowest of the six human cell types
[18] = Mean CC50, mean over the six human cell types

## Nc1ccc2c(c1)C(=O)/C(=C/c1cccc(OCc3ccccc3)c1)O2 [Compound 12, (Z)-5-amino-2-(3-(benzyloxy)benzylidene)benzofuran-3(2H)-one]
[1]
  MIC: 25 µM (≈ 8.58 µg/mL)
[2]
  MIC: 100 µM (≈ 34.3 µg/mL)
[3]
  MIC: > 100 µM
  MIC E. coli ATCC8739: inactive
[4]
  MIC: > 100 µM
[5]
  MIC: 50 µM (≈ 17.2 µg/mL)
[6]
  MIC: > 100 µM
  MIC C. albicans DSM10697: inactive
other
  melting point: 132.6 °C
[7]
  CC50 at 48 h: 152 µM
[8]
  CC50 at 48 h: 74.6 µM
[9]
  CC50 at 48 h: 112 µM
[10]
  CC50 at 48 h: 51.3 µM
[11]
  CC50 at 48 h: 343 µM
[12]
  CC50 at 48 h: 42.4 µM
[13]; [16]
  CC50 at 48 h: 343 µM
[13]; [17]
  CC50 at 48 h: 42.4 µM
[13]; [18]
  CC50 at 48 h: 129 µM
[14]
  Highest TI: 3.4
  Lowest TI: 0.4

## CC(=O)Nc1ccc2c(c1)C(=O)/C(=C/c1ccc(Oc3ccccc3)cc1)O2 [Compound 15, (Z)-N-(3-oxo-2-(4-phenoxybenzylidene)-2,3-dihydrobenzofuran-5-yl)acetamide]
[1]
  MIC: 50 µM (≈ 18.6 µg/mL)
[2]
  MIC: 100 µM (≈ 37.1 µg/mL)
[3]
  MIC: > 100 µM
  MIC E. coli ATCC8739: inactive
[4]
  MIC: > 100 µM
[5]
  MIC: 50 µM (≈ 18.6 µg/mL)
[6]
  MIC: > 100 µM
  MIC C. albicans DSM10697: inactive
other
  melting point: 213.5 °C
[7]
  CC50 at 48 h: 146 µM
[8]
  CC50 at 48 h: 110 µM
[9]
  CC50 at 48 h: 137 µM
[10]
  CC50 at 48 h: > 500 µM
[11]
  CC50 at 48 h: > 500 µM
[12]
  CC50 at 48 h: > 500 µM
[13]; [16]
  CC50 at 48 h: > 500 µM
[13]; [17]
  CC50 at 48 h: 110 µM
[14]
  Highest TI: >5
  Lowest TI: 1.0

## Nc1ccc2c(c1)C(=O)/C(=C/c1cccc(Oc3ccccc3)c1)O2 [Compound 16, (Z)-5-amino-2-(3-phenoxybenzylidene)benzofuran-3(2H)-one]
[1]
  MIC: 25 µM (≈ 8.23 µg/mL)
[2]
  MIC: 25 µM (≈ 8.23 µg/mL)
[3]
  MIC: 25 µM (≈ 8.23 µg/mL)
[4]
  MIC: > 100 µM
[5]
  MIC: 50 µM (≈ 16.5 µg/mL)
[6]
  MIC: > 100 µM
  MIC C. albicans DSM10697: inactive
other
  melting point: 145.6 °C
[7]
  CC50 at 48 h: 452 µM
[8]
  CC50 at 48 h: 130 µM
[9]
  CC50 at 48 h: 132 µM
[10]
  CC50 at 48 h: 80.4 µM
[11]
  CC50 at 48 h: 398 µM
[12]
  CC50 at 48 h: 116 µM
[13]; [16]
  CC50 at 48 h: 452 µM
[13]; [17]
  CC50 at 48 h: 80.4 µM
[13]; [18]
  CC50 at 48 h: 218 µM
[14]
  Highest TI: 18.0
  Lowest TI: 3.2

## CC(=O)Nc1ccc2c(c1)C(=O)/C(=C/c1ccccc1OC(C)C)O2 [Compound 18, (Z)-N-(2-(2-isopropoxybenzylidene)-3-oxo-2,3-dihydrobenzofuran-5-yl)acetamide]
[1]
  MIC: > 100 µM
[2]
  MIC: > 100 µM
[3]
  MIC: > 100 µM
[4]
  MIC: > 100 µM
[5]
  MIC: > 100 µM
[6]
  MIC: > 100 µM
[15]
  activity against tested micro-organisms (in words): weak or no activity

## CC(=O)Nc1ccc2c(c1)C(=O)/C(=C/c1cccc(OC(C)C)c1)O2 [Compound 19, (Z)-N-(2-(3-isopropoxybenzylidene)-3-oxo-2,3-dihydrobenzofuran-5-yl)acetamide]
[1]
  MIC: > 100 µM
[2]
  MIC: > 100 µM
[3]
  MIC: > 100 µM
[4]
  MIC: 25 µM (≈ 8.43 µg/mL)
[5]
  MIC: > 100 µM
[6]
  MIC: > 100 µM
[15]
  activity against tested micro-organisms (in words): weak or no activity

## CC(C)Oc1ccccc1/C=C1\Oc2ccc(N)cc2C1=O [Compound 21, (Z)-5-amino-2-(2-isopropoxybenzylidene)benzofuran-3(2H)-one]
[1]
  MIC: > 100 µM
[2]
  MIC: > 100 µM
[3]
  MIC: > 100 µM
[4]
  MIC: > 100 µM
[5]
  MIC: > 100 µM
[6]
  MIC: > 100 µM
[15]
  activity against tested micro-organisms (in words): weak or no activity

## CC(C)Oc1cccc(/C=C2\Oc3ccc(N)cc3C2=O)c1 [Compound 22, (Z)-5-amino-2-(3-isopropoxybenzylidene)benzofuran-3(2H)-one]
[1]
  MIC: > 100 µM
[2]
  MIC: > 100 µM
[3]
  MIC: > 100 µM
[4]
  MIC: > 100 µM
[5]
  MIC: > 100 µM
[6]
  MIC: > 100 µM
[15]
  activity against tested micro-organisms (in words): weak or no activity
other
  melting point: 198.4 °C

Reference: paper PMC11047580, “Design and Synthesis of Novel Amino and Acetamidoaurones with Antimicrobial Activities” (Antibiotics, 2024)
